Test results reported in US9073855B2, “BCL-2 selective apoptosis-inducing agents for the treatment of cancer and immune diseases” (AbbVie Inc., priority 2008, dated 2015).

Assays:
FL5.12/Bcl-2 cells = assay: FL5.12/Bcl-2 cell viability assay under IL-3 withdrawal (CellTitre Glo); type: cell-based, murine; details: Mus musculus, IL-3 withdrawn 48 hrs, then 24 hrs with compound
Method in brief: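 Viability measured by CellTitre Glo after FL5.12/Bcl-2 murine cells, starved of IL-3 for 48 hrs, were treated with compounds for another 24 hrs. Killing reflects inhibition of Bcl-2 sequestration of Bim and Puma.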

Canine platelets = assay: Platelet cell viability assay (platelet-rich plasma, Cell Titer Glo); type: cell-based; details: Canis lupus familiaris, 5 h, isolated canine platelets ex vivo, five hours at 37° C.
Experimental: After the incubation, platelets were equilibrated to room temperature for 20 minutes and then an equal volume of Cell Titer Glo reagent (Promega Corporation) was added. Samples were mixed for two minutes and then allowed to equilibrate for an additional 10 minutes at room temperature. The luminescence generated from the samples was quantitated using an LJL Analyst plate reader.
The effect of compounds on platelet survival can be directly evaluated ex vivo by examining the viability of isolated canine platelets in the presence of various concentrations of compound.

GST-Bcl-2 = GST-Bcl-2 (Homo sapiens, UniProt P10415); assay: TR-FRET binding assay, GST-Bcl-2 with F-Bak peptide probe; details: TR-FRET Binding Affinity, GST-Bcl-2, F-Bak peptide probe
Sequence of GST-Bcl-2 (P10415 whole entry, the tested form may be a part): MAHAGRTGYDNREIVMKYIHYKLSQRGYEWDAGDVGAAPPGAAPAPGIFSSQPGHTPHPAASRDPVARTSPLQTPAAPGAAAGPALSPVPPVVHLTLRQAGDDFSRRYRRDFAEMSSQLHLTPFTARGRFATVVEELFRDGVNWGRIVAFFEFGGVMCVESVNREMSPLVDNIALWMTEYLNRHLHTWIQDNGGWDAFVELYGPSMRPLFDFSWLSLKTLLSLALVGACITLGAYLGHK
Method in brief: (§1)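 Competitive TR-FRET: GST-fusion protein, fluorescent Bak peptide probe and Tb-labelled anti-GST antibody incubated with compound dilution series (starting 50 μM as 2× stock, 10% DMSO) for 3 h at RT. Excitation 340/35 nm; Ki derived via Wang's exact competitive-binding equation.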

GST-Bcl-XL = GST-Bcl-XL (Homo sapiens, UniProt Q07817); assay: TR-FRET binding assay, GST-Bcl-XL with F-Bak peptide probe; details: TR-FRET Binding Affinity, GST-Bcl-XL, F-Bak peptide probe
Sequence of GST-Bcl-XL (Q07817 whole entry): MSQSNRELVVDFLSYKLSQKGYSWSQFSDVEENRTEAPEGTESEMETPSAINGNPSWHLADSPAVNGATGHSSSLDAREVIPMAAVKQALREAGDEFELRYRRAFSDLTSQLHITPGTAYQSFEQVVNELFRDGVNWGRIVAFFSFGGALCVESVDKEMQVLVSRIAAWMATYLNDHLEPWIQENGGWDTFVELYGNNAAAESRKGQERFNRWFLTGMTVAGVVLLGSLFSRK
Method in brief: as §1

## CN1CCC(Nc2ccc(S(=O)(=O)NC(=O)c3ccc(N4CCN(CC5=C(c6ccc(Cl)cc6)CC(C)(C)OC5)CC4)cc3Oc3cccc4[nH]ccc34)cc2[N+](=O)[O-])CC1 [Example 145, 4-(4-{[4-(4-chlorophenyl)-6,6-dimethyl-5,6-dihydro-2H-pyran-3-yl]methyl}piperazin-1-yl)-2-(1H-indol-4-yloxy)-N-({4-[(1-methylpiperidin-4-yl)amino]-3-nitrophenyl}sulfonyl)benzamide]
FL5.12/Bcl-2 cells
  EC50: 4 nM
Canine platelets
  EC50: 3210 nM
GST-Bcl-2
  Ki: 0.03 nM
GST-Bcl-XL
  Ki: 12 nM

## CN1CCC(CNc2ccc(S(=O)(=O)NC(=O)c3ccc(N4CCN(CC5=C(c6ccc(Cl)cc6)CC(C)(C)CC5)CC4)cc3Oc3ccc4[nH]ccc4c3)cc2[N+](=O)[O-])(N(C)C)CC1 [Example 109, 4-(4-{[2-(4-chlorophenyl)-4,4-dimethylcyclohex-1-en-1-yl]methyl}piperazin-1-yl)-N-{[4-({[4-(dimethylamino)-1-methylpiperidin-4-yl]methyl}amino)-3-nitrophenyl]sulfonyl}-2-(1H-indol-5-yloxy)benzamide]
FL5.12/Bcl-2 cells
  EC50: 36 nM
Canine platelets
  EC50: > 50000 nM
GST-Bcl-2
  Ki: 0.161 nM
GST-Bcl-XL
  Ki: > 660 nM

## CN(C)CCOc1ccc(-c2ccc(Cl)cc2)c(CN2CCN(c3ccc(C(=O)NS(=O)(=O)c4ccc(NCCCN5CCCC5)c([N+](=O)[O-])c4)c(Oc4ccc5[nH]ccc5c4)c3)CC2)c1 [Example 135, 4-[4-({4′-chloro-4-[2-(dimethylamino)ethoxy]-1,1′-biphenyl-2-yl}methyl)piperazin-1-yl]-2-(1H-indol-5-yloxy)-N-({3-nitro-4-[(3-pyrrolidin-1-ylpropyl)amino]phenyl}sulfonyl)benzamide]
FL5.12/Bcl-2 cells
  EC50: 42 nM
Canine platelets
  EC50: 4550 nM
GST-Bcl-2
  Ki: 0.008 nM
GST-Bcl-XL
  Ki: 6.24 nM

## CN(C)CCCNc1ccc(S(=O)(=O)NC(=O)c2ccc(N3CCN(CC4=C(c5ccc(Cl)cc5)CC(C)(C)CC4)CC3)cc2Oc2ccc3[nH]ccc3c2)cc1C#N [Example 172, 4-(4-{[2-(4-chlorophenyl)-4,4-dimethylcyclohex-1-en-1-yl]methyl}piperazin-1-yl)-N-[(3-cyano-4-{[3-(dimethylamino)propyl]amino}phenyl)sulfonyl]-2-(1H-indol-5-yloxy)benzamide]
FL5.12/Bcl-2 cells
  EC50: 194 nM
Canine platelets
  EC50: > 50000 nM
GST-Bcl-2
  Ki: 2.05 nM
GST-Bcl-XL
  Ki: 65.7 nM

## CC1(C)CCC(CN2CCN(c3ccc(C(=O)NS(=O)(=O)c4ccc(NCCCN5CCOCC5)c([N+](=O)[O-])c4)c(Oc4ccc5c(c4)CCCN5)c3)CC2)=C(c2ccc(Cl)cc2)C1 [Example 22, 4-(4-{[2-(4-chlorophenyl)-4,4-dimethylcyclohex-1-en-1-yl]methyl}piperazin-1-yl)-N-({4-[(3-morpholin-4-ylpropyl)amino]-3-nitrophenyl}sulfonyl)-2-(1,2,3,4-tetrahydroquinolin-6-yloxy)benzamide]
FL5.12/Bcl-2 cells
  EC50: 825 nM
Canine platelets
  EC50: > 50000 nM
GST-Bcl-2
  Ki: 6.22 nM
GST-Bcl-XL
  Ki: 125 nM

## CN(C)CCCNc1ccc(S(=O)(=O)NC(=O)c2ccc(N3CCN(CC4=C(c5ccc(Cl)cc5)CC(C)(C)CC4)CC3)cc2Oc2cccc3[nH]ccc23)cc1[N+](=O)[O-] [Example 57, 4-(4-{[2-(4-chlorophenyl)-4,4-dimethylcyclohex-1-en-1-yl]methyl}piperazin-1-yl)-N-[(4-{[3-(dimethylamino)propyl]amino}-3-nitrophenyl)sulfonyl]-2-(1H-indol-4-yloxy)benzamide]
FL5.12/Bcl-2 cells
  EC50: 16 nM
Canine platelets
  EC50: 16800 nM
GST-Bcl-2
  Ki: 0.068 nM
GST-Bcl-XL
  Ki: 4.67 nM

## CN1CCC(Nc2ccc(S(=O)(=O)NC(=O)c3ccc(N4CCN(CC5=C(c6ccc(Cl)cc6)CC(C)(C)CC5)CC4)cc3Oc3ccc4[nH]ccc4c3)cc2S(=O)(=O)C(F)(F)F)CC1 [Example 76, 4-(4-{[2-(4-chlorophenyl)-4,4-dimethylcyclohex-1-en-1-yl]methyl}piperazin-1-yl)-2-(1H-indol-5-yloxy)-N-({4-[(1-methylpiperidin-4-yl)amino]-3-[(trifluoromethyl)sulfonyl]phenyl}sulfonyl)benzamide]
FL5.12/Bcl-2 cells
  EC50: 39 nM
Canine platelets
  EC50: 8660 nM
GST-Bcl-XL
  Ki: 3.29 nM

## CN1CCC(Nc2ccc(S(=O)(=O)NC(=O)c3ccc(N4CCN(CC5=C(c6ccc(Cl)cc6)CC(C)(C)CC5)CC4)cc3Oc3ccc4[nH]ccc4c3)cc2[N+](=O)[O-])CC1 [Example 98, 4-(4-{[2-(4-chlorophenyl)-4,4-dimethylcyclohex-1-en-1-yl]methyl}piperazin-1-yl)-2-(1H-indol-5-yloxy)-N-({4-[(1-methylpiperidin-4-yl)amino]-3-nitrophenyl}sulfonyl)benzamide]
FL5.12/Bcl-2 cells
  EC50: 4 nM
Canine platelets
  EC50: 17900 nM
GST-Bcl-XL
  Ki: > 660 nM

## CN1CCC(Nc2ccc(S(=O)(=O)NC(=O)c3ccc(N4CCN(CC5=C(c6ccc(Cl)cc6)CCC5)CC4)cc3Oc3cccc4[nH]ccc34)cc2[N+](=O)[O-])CC1 [Example 148, 4-(4-{[2-(4-chlorophenyl)cyclopent-1-en-1-yl]methyl}piperazin-1-yl)-2-(1H-indol-4-yloxy)-N-({4-[(1-methylpiperidin-4-yl)amino]-3-nitrophenyl}sulfonyl)benzamide]
Canine platelets
  EC50: 19800 nM
GST-Bcl-2
  Ki: 2.89 nM
GST-Bcl-XL
  Ki: > 660 nM

## CN(C)CCOc1cccc(-c2ccc(Cl)cc2)c1CN1CCN(c2ccc(C(=O)NS(=O)(=O)c3ccc(NCC4CCOCC4)c([N+](=O)[O-])c3)c(Oc3ccc4[nH]ccc4c3)c2)CC1 [Example 129, 4-[4-({4′-chloro-3-[2-(dimethylamino)ethoxy]-1,1′-biphenyl-2-yl}methyl)piperazin-1-yl]-2-(1H-indol-5-yloxy)-N-({3-nitro-4-[(tetrahydro-2H-pyran-4-ylmethyl)amino]phenyl}sulfonyl)benzamide]
FL5.12/Bcl-2 cells
  EC50: 21 nM
Canine platelets
  EC50: > 50000 nM

## CN(C)CCCOc1ccc(S(=O)(=O)NC(=O)c2ccc(N3CCN(CC4=C(c5ccc(Cl)cc5)CC(C)(C)CC4)CC3)cc2Oc2cccc3[nH]ccc23)cc1[N+](=O)[O-] [Example 106, 4-(4-{[2-(4-chlorophenyl)-4,4-dimethylcyclohex-1-en-1-yl]methyl}piperazin-1-yl)-N-({4-[3-(dimethylamino)propoxy]-3-nitrophenyl}sulfonyl)-2-(1H-indol-4-yloxy)benzamide]
FL5.12/Bcl-2 cells
  EC50: 9 nM
Canine platelets
  EC50: 15200 nM

## CC1(C)CCC(CN2CCN(c3ccc(C(=O)NS(=O)(=O)c4ccc(S(C)(=O)=O)cc4)c(Oc4ccc5[nH]ccc5c4)c3)CC2)=C(c2ccc(Cl)cc2)C1 [Example 382, 4-(4-{[2-(4-chlorophenyl)-4,4-dimethylcyclohex-1-en-1-yl]methyl}piperazin-1-yl)-2-(1H-indol-5-yloxy)-N-{[4-(methylsulfonyl)phenyl]sulfonyl}benzamide]
FL5.12/Bcl-2 cells
  EC50: > 500 nM
GST-Bcl-2
  Ki: 1.15 nM
GST-Bcl-XL
  Ki: > 660 nM

## C[C@H](Nc1ccc(S(=O)(=O)NC(=O)c2ccc(N3CCN(CC4=C(c5ccc(Cl)cc5)CC(C)(C)CC4)CC3)cc2Oc2ccc3[nH]ccc3c2)cc1[N+](=O)[O-])c1ccccc1 [Example 378, 4-(4-{[2-(4-chlorophenyl)-4,4-dimethylcyclohex-1-en-1-yl]methyl}piperazin-1-yl)-2-(1H-indol-5-yloxy)-N-[(3-nitro-4-{[(1S)-1-phenylethyl]amino}phenyl)sulfonyl]benzamide]
FL5.12/Bcl-2 cells
  EC50: > 500 nM
GST-Bcl-2
  Ki: 63 nM
GST-Bcl-XL
  Ki: > 660 nM

## COCCNC(=O)c1ccc(S(=O)(=O)NC(=O)c2ccc(N3CCN(CC4=C(c5ccc(Cl)cc5)CC(C)(C)CC4)CC3)cc2Oc2ccc3[nH]ccc3c2)cc1 [Example 332, 4-(4-{[2-(4-chlorophenyl)-4,4-dimethylcyclohex-1-en-1-yl]methyl}piperazin-1-yl)-2-(1H-indol-5-yloxy)-N-[(4-{[(2-methoxyethyl)amino]carbonyl}phenyl)sulfonyl]benzamide]
FL5.12/Bcl-2 cells
  EC50: > 500 nM
GST-Bcl-2
  Ki: 12.6 nM
GST-Bcl-XL
  Ki: > 660 nM

## CC1(C)CCC(CN2CCN(c3ccc(C(=O)NS(=O)(=O)c4ccc(N5CCOCC5)c([N+](=O)[O-])c4)c(Oc4ccc5[nH]ccc5c4)c3)CC2)=C(c2ccc(Cl)cc2)C1 [Example 270, 4-(4-{[2-(4-chlorophenyl)-4,4-dimethylcyclohex-1-en-1-yl]methyl}piperazin-1-yl)-2-(1H-indol-5-yloxy)-N-[(4-morpholin-4-yl-3-nitrophenyl)sulfonyl]benzamide]
FL5.12/Bcl-2 cells
  EC50: 429 nM
GST-Bcl-2
  Ki: 3.31 nM
GST-Bcl-XL
  Ki: > 660 nM

## CC1(C)CCC(CN2CCN(c3ccc(C(=O)NS(=O)(=O)c4ccc(OC5CCN(C6CCOCC6)CC5)c([N+](=O)[O-])c4)c(Oc4ccc5[nH]ccc5c4)c3)CC2)=C(c2ccc(Cl)cc2)C1 [Example 389, 4-(4-{[2-(4-chlorophenyl)-4,4-dimethylcyclohex-1-en-1-yl]methyl}piperazin-1-yl)-2-(1H-indol-5-yloxy)-N-({3-nitro-4-[(1-tetrahydro-2H-pyran-4-ylpiperidin-4-yl)oxy]phenyl}sulfonyl)benzamide]
FL5.12/Bcl-2 cells
  EC50: 28.1 nM
GST-Bcl-2
  Ki: 0.098 nM
GST-Bcl-XL
  Ki: 67.2 nM
